{"source": "patent US20220257592A1", "about": "“METHODS OF TREATING CANCER” (HOFFMANN-LA ROCHE INC., priority 2019, published 2022)", "assay": "Circulating exposure at steady-state in patients", "format": "in vivo, human", "data": [{"smiles": "O=C(Nc1n[nH]c2ccc(Cc3cc(F)cc(F)c3)cc12)c1ccc(N2CCNCC2)cc1NC1CCOCC1", "note": "[M5]", "values": [{"measurement": "circulating M5 exposure as share of corresponding entrectinib exposure", "value": 40, "unit": "%"}]}]}
